Measurements as given in ChEMBL document CHEMBL3400082, “Synthesis of 6-aryl-substituted sulfocoumarins and investigation of their carbonic anhydrase inhibitory action” (Bioorg Med Chem, 2015).

Columns and labels:
Carbonic anhydrase 2 = Carbonic anhydrase 2 (Homo sapiens, UniProt P00918); test: Inhibition of human cytosolic carbonic anhydrase 2 by stopped-flow CO2 hydrase assay
Carbonic anhydrase 9 = Carbonic anhydrase 9 (Homo sapiens, UniProt Q16790); test: Inhibition of human tumor-associated carbonic anhydrase 9 by stopped-flow CO2 hydrase assay
Carbonic anhydrase 1 = Carbonic anhydrase 1 (Homo sapiens, UniProt P00915); test: Inhibition of human cytosolic carbonic anhydrase 1 by stopped-flow CO2 hydrase assay
Sequence of Carbonic anhydrase 1 (P00915 whole entry): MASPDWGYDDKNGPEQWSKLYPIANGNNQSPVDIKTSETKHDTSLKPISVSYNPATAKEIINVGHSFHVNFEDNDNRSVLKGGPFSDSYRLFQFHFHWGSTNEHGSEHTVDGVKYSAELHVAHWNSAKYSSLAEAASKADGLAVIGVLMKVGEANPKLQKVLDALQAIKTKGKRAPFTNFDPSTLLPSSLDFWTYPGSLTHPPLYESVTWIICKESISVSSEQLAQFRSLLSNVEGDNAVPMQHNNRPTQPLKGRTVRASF

| SMILES | Ki (Carbonic anhydrase 2) [µM] | Ki (Carbonic anhydrase 9) [µM] | Ki (Carbonic anhydrase 1) [µM] |
| --- | --- | --- | --- |
| O=S1(=O)C=Cc2cc(-c3ccc(F)cc3)ccc2O1 | > 10 | 0.0953 | > 10 |
| CC(C)Oc1ccc(-c2ccc3c(c2)C=CS(=O)(=O)O3)cc1 | > 10 | 0.0098 | > 10 |
| O=S1(=O)C=Cc2cc(-c3cccc(C(F)(F)F)c3)ccc2O1 | > 10 | 0.0098 | > 10 |
| O=S1(=O)C=Cc2cc(-c3ccc(Cl)c(Cl)c3)ccc2O1 | > 10 | 0.0094 | > 10 |
| O=S1(=O)C=Cc2cc(-c3cccc(F)c3)ccc2O1 | > 10 | 0.0103 | > 10 |
| COC(=O)c1cccc(-c2ccc3c(c2)C=CS(=O)(=O)O3)c1 | > 10 | 0.009 | > 10 |
| Cc1ccccc1-c1ccc2c(c1)C=CS(=O)(=O)O2 | > 10 | 0.0708 | > 10 |

Next, values leading:

| Ki (Carbonic anhydrase 2) [µM] | Ki (Carbonic anhydrase 9) [µM] | Ki (Carbonic anhydrase 1) [µM] | SMILES |
| --- | --- | --- | --- |
| > 10 | 0.0297 | > 10 | O=S1(=O)C=Cc2cc(-c3ccc(C(F)(F)F)cc3)ccc2O1 |
| > 10 | 0.0762 | > 10 | O=S1(=O)C=Cc2cc(-c3ccc(OC(F)(F)F)cc3)ccc2O1 |
| > 10 | 0.0774 | > 10 | Cc1ccc(-c2ccc3c(c2)C=CS(=O)(=O)O3)cc1 |
| > 10 | 0.0091 | > 10 | CC(C)(C)c1ccc(-c2ccc3c(c2)C=CS(=O)(=O)O3)cc1 |
| > 10 | 0.0709 | > 10 | COc1ccc(-c2ccc3c(c2)C=CS(=O)(=O)O3)cc1 |
| > 10 | 0.0599 | > 10 | O=S1(=O)C=Cc2cc(-c3ccccc3)ccc2O1 |
